Test results from patent US20140094413A1, “HEPATOCYTE GROWTH FACTOR (HGF) MIMICS AS THERAPEUTIC AGENTS” (WASHINGTON STATE UNIVERSITY, priority 2012, published 2014).
pKi: −log10 of the molar value. Where a name gives a salt, the structure may show the parent alone. Where a SMILES comes first, the peptide text is derived from it. [ ]: non-standard residue; d: D form. dNle = CCCC[C@@H](N)C(=O)O; Ahx = NCCCCCC(=O)O

How the values were obtained:
[1] = target: T1, human HGF (Homo sapiens, UniProt P14210); test: HGF binding, competition with 3H-Hinge; settings: 1.25 ng HGF, 40 min at 37° C.; N=9
T1 construct: purchased R&D Systems (Minneapolis, Minn.)
Description: The binding of 6-AH analogs to HGF was assessed by competition using a soluble binding assay. 250 μl of PBS containing human HGF (1.25 ng) were incubated with ^3H-Hinge, the central dimerization domain of HGF, in the presence of varying concentrations of 6-AH analogs between 10^−13 M to 10^−7M (half-log dilutions) for 40 min at 37° C. The incubates were then spun through Bio-Gel P6 spin columns (400 μl packed volume) for 1 min to separate free and bound ^3H-Hinge and the eluent was collected. Five milliliters of scintillation fluid was added to the eluent, which contained the HGF bound ^3H-Hinge, and was then counted using scintillation counter. Total disintegrations per minute of bound ^3H-Hinge were calculated based on machine counting efficiency. The Ki values for the binding of the peptides were determined using the Prism 5. Competition binding curves were performed in triplicate.

[2] = target: T1, human HGF; test: HGF dimerization; assay type: biochemical; settings: analogs at 10^−10 M, heparin, 30 minute incubation
Description: HGF dimerization was assessed using PAGE followed by silver staining (Kawas et al., 2011). Human HGF at a concentration of 0.08 ng/μl with or without 6-AH analogs was incubated with heparin at a final concentration of 5 μg/ml. Loading buffer was then added to each sample and the mixture separated by native PAGE using gradient Criterion XT precast gels (4-12% Bis-Tris; Biorad Laboratories, Hercules, Calif.). Next the gel was silver stained for the detection of the HGF monomers and dimers. Bands were quantitated from digital images using a UVP phosphoimager (Upland, Calif.).

[3] = tested on: Met; test: Inhibition of HGF-dependent Met phosphorylation in HEK293 cells; assay type: cell-based, human; settings: 10 min with HGF+/− analog
Description: HEK293 cells were seeded in 6 well tissue culture plates and grown to 95% confluency in DMEM containing 10% FBS. The cells were serum deprived for 24 h prior to the treatment to reduce the basal levels of phospho-Met. Following serum starvation, cocktails comprised of vehicle and HGF with/without 6-AH analogs were prepared and pre-incubated for 30 min at room temperature. The cocktail was then added to the cells for 10 min to stimulate the Met receptor and downstream proteins. Cells were harvested using RIPA lysis buffer (Millipore; Billerica, Mass.) fortified with phosphatase inhibitor cocktails 1 and 2 (Sigma-Aldrich; St. Louis, Mo.). The lysate was clarified by centrifugation at 15,000 nx g for 15 min, protein concentrations were determined using the BCA total protein assay (Pierce), and then appropriate volumes of the lysates were diluted with 2× reducing Laemmli buffer and heated for ten min at 95° C. Samples containing identical amounts of protein were resolved using SDS-PAGE (Criterion, BioRad Laboratories), transferred to nitrocellulose, and blocked in Tris-buffered saline (TBS) containing 5% milk for 1 h at room temperature. The phospho-Met antibody were added to the blocking buffer at a final concentration of 1:1000 and incubated at 4° C. overnight with gentle agitation. The membranes were then washed several times with water and TBS ([…], 0.05% Tween-20), a 1:5000 dilution of horseradish-peroxidase conjugated goat anti-rabbit antiserum was added, and the membranes further incubated for 1 h at room temperature. Proteins were visualized using the Supersignal West Pico Chemiluminescent Substrate system (Pierce, Fenton, Mo.) and molecular weights determined by comparison to protein ladders (BenchMark, Invitrogen, and Kaleidoscope, BioRad). Film images were digitized and analyzed using a UVP phosphoimager.

[4] = tested on: MDCK cells; test: Inhibition of HGF-dependent scattering in MDCK cells; assay type: cell-based, canine; settings: HGF 20 ng/ml, 48 h
Description: MDCK cells were grown to 100% confluency on the coverslips in six-well plates and washed twice with PBS. The confluent coverslips were then aseptically transferred to new six well plates containing 900 μl serum free DMEM. Norleual, Hinge peptide, and/or HGF (20 ng/ml) were added to appropriate wells. Control wells received PBS vehicle. Plates were incubated at 37° C. with 5% CO2 for 48 h. Media was removed and cells were fixed with methanol. Cells were stained with Diff-Quik Wright-Giemsa (Dade-Behring, Newark, Del.) and digital images were taken. Coverslips were removed with forceps and more digital images were captured. Pixel quantification of images was achieved using Image J and statistics were performed using Prism 5 and InStat v.3.05 (GraphPad; San Diego, Calif.).

[5] = tested on: rats; test: Morris water maze with i.c.v. Dihexa and HGF antagonist Hinge; assay type: in vivo, rat; settings: scopolamine treated rats

T1 sequence (P14210 32-728): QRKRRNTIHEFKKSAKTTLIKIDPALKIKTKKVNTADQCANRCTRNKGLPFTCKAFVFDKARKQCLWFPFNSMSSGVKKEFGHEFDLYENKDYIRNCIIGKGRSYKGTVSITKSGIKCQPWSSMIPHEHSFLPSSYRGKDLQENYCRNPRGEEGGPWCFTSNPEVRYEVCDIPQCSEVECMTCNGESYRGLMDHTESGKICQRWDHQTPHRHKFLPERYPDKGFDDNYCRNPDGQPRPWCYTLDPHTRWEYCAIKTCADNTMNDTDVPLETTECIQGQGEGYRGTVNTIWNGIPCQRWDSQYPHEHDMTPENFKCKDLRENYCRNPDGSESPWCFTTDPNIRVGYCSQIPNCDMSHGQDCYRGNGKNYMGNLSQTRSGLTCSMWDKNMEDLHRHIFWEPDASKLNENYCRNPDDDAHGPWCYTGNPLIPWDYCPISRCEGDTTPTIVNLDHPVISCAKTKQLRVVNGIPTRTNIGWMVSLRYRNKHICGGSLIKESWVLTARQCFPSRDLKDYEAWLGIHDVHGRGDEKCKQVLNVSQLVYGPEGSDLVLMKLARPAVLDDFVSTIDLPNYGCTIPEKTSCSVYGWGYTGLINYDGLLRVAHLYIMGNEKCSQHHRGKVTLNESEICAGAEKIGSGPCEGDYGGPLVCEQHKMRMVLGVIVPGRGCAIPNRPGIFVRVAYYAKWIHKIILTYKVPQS

| SMILES | pKi [1] | Inhibition of HGF dimerization [2] | Inhibition of HGF-dependent Met phosphorylation [3] | Inhibition of HGF-dependent Met phosphorylation ([3]; listed as Met) | Inhibition of HGF-dependent MDCK cell scattering [4] | Mean latency to find the pedestal, day one [5] [s] | Mean latency to find the pedestal, final day (day 8) [5] [s] | Mean latency to find the pedestal, fourth day [5] [s] |
| --- | --- | --- | --- | --- | --- | --- | --- | --- |
| CCCC[C@@H](N)C(=O)N[C@@H](CCSC)C(=O)N[C@H](C(=O)NCCCCCC(N)=O)[C@@H](C)CC [D-Nle-Met-Ile-NH—(CH2)5—CONH2] (H-[dNle]MI[Ahx]-NH2) | 6.86 | unable to block dimerization at the concentration tested | no ability to effect on Met activation | not different than the HGF group | not different |  |  |  |
| CN1[C@@H]2C[C@@H](OC(=O)[C@H](CO)c3ccccc3)C[C@H]1[C@@H]1O[C@@H]12 [scopolamine, scopolamine hydrobromide] |  |  |  |  |  | 114.7 | 84.8 | 102.4 |
